Laboratory results published in US20230017532A1 (Hoffmann-La Roche Inc., priority 2018, published 2023).
Where a name gives a salt, the structure may show the parent alone.

The molecules below were run on Acinetobacter baumannii ATCC17978 (assay: Antimicrobial susceptibility testing: 90% growth inhibitory concentration (IC90) determination, Iso-Sensitest broth, OD 600 nm). Conditions: Acinetobacter baumannii, ATCC17978, 16 h, 90% growth inhibitory concentration, Acinetobacter baumannii ATCC17978, Iso-Sensitest broth, OD 600 nm over 16 h; read-out: ATCC 17978 IC90.
Assay type: cell-based
Experimental: Antimicrobial Susceptibility Testing:
90% Growth Inhibitory Concentration (IC90) Determination
The in vitro antimicrobial activity of the compounds was determined according to the following procedure:
The assay used a 10-points Iso-Sensitest broth medium to measure quantitatively the in vitro activity of the compounds against Acinetobacter baumannii ATCC17978 and Acinetobacter baumannii ATCC17961.
Stock compounds in DMSO were serially twofold diluted (e.g. range from 50 to 0.097 μM final concentration) in 384 wells microtiter plates and inoculated with 49 μl the bacterial suspension in Iso-Sensitest medium to have a final cell concentration of ˜5×10^(5) CFU/ml in a final volume/well of 50 ul/well. Microtiter plates were incubated at 35±2° C.
Bacterial cell growth was determined with the measurement of optical density at λ=600 nm each 20 minutes over a time course of 16 h. Growth inhibition was calculated during the logarithmic growth of the bacterial cells with determination of the concentration inhibiting 50% (IC50) and 90% (IC90) of the growth.
Table 1 provides the 90% growth inhibitory concentrations (IC90) in micromoles per liter of the compounds of present invention obtained against the strain Acinetobacter baumannii ATCC17978 and Acinetobacter baumannii ATCC17961.

Row | IC90 [nM] | SMILES
1 | 4700 | COc1ccc(-c2cnc3c(Nc4ccc(C(=O)N(C)CCOCCN5CCNC(C(=O)O)C5)c(C)c4)nccn23)cc1F (stereo not drawn) [Example 166, 4-[2-[2-[[4-[[3-(3-fluoro-4-methoxyphenyl)imidazo[1,2-a]pyrazin-8-yl]amino]-2-methylbenzoyl]-methylamino]ethoxy]ethyl]piperazine-2-carboxylic acid; hydrochloride]
2 | 5100 | Cc1cc(Nc2nccn3c(-c4ccc(Cl)c(F)c4F)cnc23)ccc1C(=O)NCCNCCO [Example 80, 4-[[3-(4-chloro-2,3-difluorophenyl)imidazo[1,2-a]pyrazin-8-yl]amino]-N-[2-(2-hydroxy-ethylamino)ethyl]-2-methyl-benzamide; hydrochloride]
3 | 370 | Cc1cc(Nc2nccn3c(-c4ccc(OC(F)F)c(F)c4)cnc23)ccc1C(=O)NCCOCCN [Example 97, N-[2-(2-aminoethoxy)ethyl]-4-[[3-[4-(difluoro-methoxy)-3-fluorophenyl]imidazo[1,2-a]pyrazin-8-yl]amino]-2-methylbenzamide; hydrochloride]
4 | 2300 | N#CCOc1ccc(-c2cnc3c(Nc4ccc(C(=O)NCCOCCN5CCNC(C(=O)O)C5)c(Cl)c4)nccn23)c(F)c1F (stereo not drawn) [Example 177, 4-[2-[2-[[2-chloro-4-[[3-[4-(cyanomethoxy)-2,3-difluorophenyl]imidazo[1,2-a]pyrazin-8-yl]amino]benzoyl]amino]ethoxy]ethyl]piperazine-2-carboxylic acid; formic acid]
5 | 940 | COc1ccc(-c2cnc3c(Nc4ccc(C(=O)N(C)CCOCCN5CCOC(CN)C5)c(C)c4)nccn23)cc1F (stereo not drawn) [Example 137, N-[2-[2-[2-(aminomethyl)morpholin-4-yl]ethoxy]ethyl]-4-[[3-(3-fluoro-4-methoxyphenyl)imidazo[1,2-a]pyrazin-8-yl]amino]-N,2-dimethyl-benzamide; hydrochloride]
6 | 1600 | COc1ccc(-c2cnc3c(Nc4ccc(C(=O)N(C)CCOCCN5CCN(C6COC6)CC5)c(C)c4)nccn23)cc1F [Example 151, 4-[[3-(3-fluoro-4-methoxyphenyl)imidazo[1,2-a]pyrazin-8-yl]amino]-N,2-dimethyl-N-[2-[2-[4-(oxetan-3-yl)piperazin-1-yl]ethoxy]ethyl] benzamide]
7 | 8900 | Cc1cc(Nc2nccn3c(-c4ccc(OC(F)F)cc4)cnc23)ccc1C(=O)NCCOCC(=O)NCc1nnn[nH]1 [Example 158, 4-[[3-[4-(difluoro-methoxy)phenyl]imidazo [1,2-a]pyrazin-8-yl]amino]-2-methyl-N-[2-[2-oxo-2-(1H-tetrazol-5-ylmethylamino)ethoxy]ethyl] benzamide]
8 | 490 | C#CCOc1ccc(-c2cnc3c(Nc4ccc(C(=O)NCCNCCO)c(CC)c4)nccn23)c(F)c1F [Example 195, 4-[[3-(2,3-difluoro-4-prop-2-ynoxy-phenyl)imidazo[1,2-a]pyrazin-8-yl]amino]-2-ethyl-N-[2-(2-hydroxyethyl-amino)ethyl] benzamide]
9 | 150 | COc1ccc(-c2cnc3c(Nc4ccc(C(=O)NCCOCCN5CCC(O)CC5)c(C)c4)nccn23)cc1 [Example 38, N-(2-(2-(4-hydroxypiperidin-1-yl)ethoxy)ethyl)-4-((3-(4-methoxyphenyl)imidazo[1,2-a]pyrazin-8-yl)amino)-2-methylbenzamide]

More lines, now with the values behind:

Row | SMILES | IC90 [nM]
10 | COc1ccc(-c2cnc3c(Nc4ccc(C(=O)NCCOCCN)c(Br)c4)nccn23)c(F)c1F [Example 167, N-[2-(2-aminoethoxy)ethyl]-2-bromo-4-[[3-(2,3-difluoro-4-methoxyphenyl)imidazo[1,2-a]pyrazin-8-yl]amino] benzamide; formic acid] | 52
11 | Cc1cc(Nc2nccn3c(-c4ccc(OC(F)F)cc4)cnc23)ccc1C(=O)NCCOCCN(C)C [Example 96, 4-[[3-[4-(difluoromethoxy)phenyl]imidazo [1,2-a]pyrazin-8-yl]amino]-N-[2-[2-(dimethylamino)ethoxy]ethyl]-2-methyl-benzamide] | 310
12 | COc1ccc(-c2cnc3c(Nc4ccc(C(=O)NCCOCCNS(C)(=O)=O)c(C)c4)nccn23)cc1 [Example 109, N-[2-[2-(methane-sulfonamido)ethoxy]ethyl]-4-[[3-(4-methoxyphenyl)imidazo[1,2-a]pyrazin-8-yl]amino]-2-methylbenzamide] | 530
13 | COc1ccc(-c2cnc3c(Nc4ccc(C(=O)NCCOCCN)c(F)c4)nccn23)cc1 [Example 145, N-[2-(2-aminoethoxy)ethyl]-2-fluoro-4-[[3-(4-methoxyphenyl)imidazo[1,2-a]pyrazin-8-yl]amino] benzamide; hydrochloride] | 1200
14 | COc1ccc(-c2cnc3c(Nc4ccc(C(=O)NCCOCCN)c(Cl)c4)nccn23)cc1 [Example 6, N-(2-(2-aminoethoxy)ethyl)-2-chloro-4-((3-(4-methoxyphenyl)imidazo[1,2-a]pyrazin-8-yl)amino)benzamide hydrochloride] | 120
15 | COc1ccc(-c2cnc3c(Nc4ccc(C(=O)NCCNCCN)c(C)c4)nccn23)cc1 [Example 104, N-[2-(2-aminoethylamino)ethyl]-4-[[3-(4-methoxyphenyl)imidazo[1,2-a]pyrazin-8-yl]amino]-2-methylbenzamide; hydrochloride] | 480
16 | Cc1cc(Nc2nccn3c(-c4ccc(OC(F)F)cc4)cnc23)ccc1C(=O)NCC[S+]([O-])CCN (stereo not drawn) [Example 47, N-(2-((2-Aminoethyl)sulfinyl)ethyl)-4-((3-(4-(difluoromethoxy)phenyl)imidazo[1,2-a]pyrazin-8-yl)amino)-2-methylbenzamide] | 920
17 | Cc1cc(Nc2nccn3c(-c4ccc(OC(F)F)cc4)cnc23)ccc1C(=O)NCCOCCN1CCOC(CN)C1 (stereo not drawn) [Example 164, N-[2-[2-[2-(aminomethyl)morpholin-4-yl]ethoxy]ethyl]-4-[[3-[4-(difluoro-methoxy)phenyl]imidazo [1,2-a]pyrazin-8-yl]amino]-2-methylbenzamide; hydrochloride] | 970
18 | Cc1cc(Nc2nccn3c(-c4ccc(OC(F)F)cc4)cnc23)ccc1C(=O)NCCOCCN=C(N(C)C)N(C)C [Example 79, N-[2-[2-[bis (dimethylamino)methylidene-amino]ethoxy]ethyl]-4-[[3-[4-(difluoro-methoxy)phenyl]imidazo [1,2-a]pyrazin-8-yl]amino]-2-methylbenzamide] | 1400
19 | COc1ccc(-c2cnc3c(Nc4ccc(C(=O)N(C)CCOCCN5CCN(C6CC6)CC5)c(C)c4)nccn23)cc1F [Example 130, N-[2-[2-(4-cyclopropyl-piperazin-1-yl)ethoxy]ethyl]-4-[[3-(3-fluoro-4-methoxyphenyl)imidazo[1,2-a]pyrazin-8-yl]amino]-N,2-dimethyl-benzamide] | 760
20 | CCc1cc(Nc2nccn3c(-c4ccc(OC(F)F)c(F)c4F)cnc23)ccc1C(=O)NCCCNCCO [Example 193, 4-((3-(4-(difluoro-methoxy)-2,3-difluorophenyl)imidazo[1,2-a]pyrazin-8-yl)amino)-2-ethyl-N-(3-((2-hydroxyethyl)amino)propyl) benzamide] | 280
21 | COc1ccc(-c2cnc3c(Nc4ccc(C(=O)NCCOCCN)c(CC(F)F)c4)nccn23)cc1F [Example 173, N-[2-(2-aminoethoxy)ethyl]-2-(2,2-difluoroethyl)-4-[[3-(3-fluoro-4-methoxyphenyl)imidazo[1,2-a]pyrazin-8-yl]amino] benzamide; formic acid] | 370
22 | Cc1cc(Nc2nccn3c(-c4ccc(OC(F)F)cc4)cnc23)ccc1C(=O)NCCOCCOCCN [Example 16, N-(2-(2-(2-aminoethoxy)ethoxy)ethyl)-4-((3-(4-(difluoromethoxy)phenyl)imidazo[1,2-a]pyrazin-8-yl)amino)-2-methylbenzamide] | 570

Same assay, conditions: Acinetobacter baumannii, ATCC17978, 16 h, read-out: ATCC 17978 IC90

Row | SMILES | IC90 [nM]
23 | CCc1cc(Nc2nccn3c(-c4ccc(OC)c(F)c4F)cnc23)ccc1C(=O)NCCOCCOCCN [Example 65, N-(2-(2-(2-Aminoethoxy)ethoxy)ethyl)-4-((3-(2,3-difluoro-4-methoxyphenyl)imidazo[1,2-a]pyrazin-8-yl)amino)-2-ethylbenzamide dihydrochloride] | 72
24 | CCc1cc(Nc2nccn3c(-c4ccc(OC)cc4N)cnc23)ccc1C(=O)NCCOCCN [Example 57, 4-((3-(2-amino-4-methoxyphenyl)imidazo[1,2-a]pyrazin-8-yl)amino)-N-(2-(2-aminoethoxy)ethyl)-2-ethylbenzamide hydrochloride] | 650
25 | COc1ccc(-c2cnc3c(Nc4ccc(C(=O)NCCOCCN)c(C)c4)nccn23)c(F)c1 [Example 34, N-(2-(2-aminoethoxy)ethyl)-4-((3-(2-fluoro-4-methoxyphenyl)imidazo[1,2-a]pyrazin-8-yl)amino)-2-methylbenzamide hydrochloride] | 590
26 | COc1ccc(-c2cnc3c(Nc4ccc(C(=O)NCCOCCN)c(Cl)c4)nccn23)cc1F [Example 4, N-(2-(2-aminoethoxy)ethyl)-2-chloro-4-((3-(3-fluoro-4-methoxyphenyl)imidazo[1,2-a]pyrazin-8-yl)amino)benzamide hydrochloride] | 98
27 | CCc1cc(Nc2nccn3c(-c4ccc(OC)c(F)c4F)cnc23)ccc1C(=O)NCCOC(C)(C)CN [Example 71, N-[2-(2-amino-1,1-dimethyl-ethoxy)ethyl]-4-[[3-(2,3-difluoro-4-methoxy-phenyl)imidazo[1,2-a]pyrazin-8-yl]amino]-2-ethyl-benzamide; formic acid] | 28
